Where a SMILES comes first, the peptide text is derived from it. [ ]: non-standard residue; d: D form. Phe(4-NH2) = Nc1ccc(C[C@H](N)C(=O)O)cc1; Aad = N[C@@H](CCCC(=O)O)C(=O)O; Ac8c = NC1(C(=O)O)CCCCCCC1; Ac6c = NC1(C(=O)O)CCCCC1; Deg = CCC(N)(CC)C(=O)O

The target of the assay is T1, human glucagon-like peptide-1 receptor (GLP-1R) (Homo sapiens, UniProt P43220).
T1 construct: host or cells: CHO chAMPion cells
T1 sequence (P43220 24-463): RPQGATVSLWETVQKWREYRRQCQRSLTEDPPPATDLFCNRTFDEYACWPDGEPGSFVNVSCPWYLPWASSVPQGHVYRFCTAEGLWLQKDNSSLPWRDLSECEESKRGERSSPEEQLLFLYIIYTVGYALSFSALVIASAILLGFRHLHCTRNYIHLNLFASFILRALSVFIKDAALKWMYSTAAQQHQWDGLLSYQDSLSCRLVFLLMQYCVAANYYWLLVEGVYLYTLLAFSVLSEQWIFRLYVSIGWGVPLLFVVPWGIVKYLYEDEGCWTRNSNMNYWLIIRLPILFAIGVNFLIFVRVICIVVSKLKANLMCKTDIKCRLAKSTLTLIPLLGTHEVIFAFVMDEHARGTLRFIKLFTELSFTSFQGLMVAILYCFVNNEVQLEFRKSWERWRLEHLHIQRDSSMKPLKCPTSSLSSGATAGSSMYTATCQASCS
Description: Human GLP-1 receptor cell-based assay (flash luminescence, Target Activation phase). To be noted: CHO chAMPion cells stably co-expressing human GLP-1R, Photina and cAMP-activated calcium channel; agonist activity; normalization by forskolin at 10 μM; ^a) values from single experiment; read-out: EC50 (μM) Target Activation (TA). In short, it runs like this:
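CHO cells co-expressing human GLP-1R, photoprotein and a cAMP-gated Ca2+ channel, preloaded 4 h with coelenterazine and 500 μM IBMX. Compounds at 8 concentrations from 50 μM, quadruplicate; 30 min later 10 mM CaCl2 added and flash luminescence read. EC50 normalized to 10 μM forskolin or 3.16 nM GLP-1.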
For `COc1ccc(C[C@@H]2NC(=O)[C@H](CCC(N)=O)NC(=O)[C@H](Cc3c[nH]c4ccccc34)NC(=O)[C@H](Cc3ccccc3)NC(=O)C3(CCCCC3)NC(=O)[C@H]3CCCN3C(=O)[C@H](Cc3ccc(O)cc3)NC(=O)[C@H](CCC(=O)O)NC(=O)[C@H](Cc3c[nH]c4ccccc34)NC(=O)[C@H](C)NC2=O)cc1` [compound 8, cyclo(-Phe-Trp-Gln-Tyr(Me)-Ala-Trp-Glu-Tyr-^DPro-Chx-)] (cyclo(FWQY(Me)AWEY[dP][Ac6c])), the EC50 turned out to be 0.35 ± 0.3 µM.

As for `CC(C)C[C@@H]1NC(=O)[C@H](CC(C)C)NC(=O)[C@H](CCC(=O)O)NC(=O)[C@H](Cc2ccccc2)NC(=O)C2(CCCCCCC2)NC(=O)[C@H]2CCCN2C(=O)[C@H](Cc2ccccc2)NC(=O)[C@H](CCC(=O)O)NC(=O)[C@H](Cc2c[nH]c3ccccc23)NC(=O)[C@H](C)NC1=O` [compound 54, cyclo(-Phe-Glu-Leu-Leu-Ala-Trp-Glu-Phe-^DPro-Ac8c-)] (cyclo(FELLAWEF[dP][Ac8c])), the EC50 came to 1.1 µM. As for `C[C@@H]1NC(=O)[C@H](Cc2ccc(O)cc2)NC(=O)[C@H](CCC(N)=O)NC(=O)[C@H](Cc2c[nH]c3ccccc23)NC(=O)[C@H](Cc2ccccc2)NC(=O)C2(CCCCC2)NC(=O)[C@H]2CCCN2C(=O)[C@H](Cc2ccc(N)cc2)NC(=O)[C@H](CCC(=O)O)NC(=O)[C@H](Cc2c[nH]c3ccccc23)NC1=O` [compound 30, cyclo(-Phe-Trp-Gln-Tyr-Ala-Trp-Glu-Phe(4NH2)-^DPro-Chx-)] (cyclo(FWQYAWE[Phe(4-NH2)][dP][Ac6c])), the EC50 is 0.63 µM. For `CC(C)C[C@@H]1NC(=O)[C@H](CCC(N)=O)NC(=O)[C@H](Cc2ccccc2)NC(=O)C2(CCCCC2)NC(=O)[C@H]2CCCN2C(=O)[C@H](Cc2ccc(O)cc2)NC(=O)[C@H](CCC(=O)O)NC(=O)[C@H](Cc2c[nH]c3ccccc23)NC(=O)[C@H](C)NC(=O)[C@H](Cc2ccc(O)cc2)NC1=O` [compound 40, cyclo(-Phe-Gln-Leu-Tyr-Ala-Trp-Glu-Tyr-^DPro-Chx-)] (cyclo(FQLYAWEY[dP][Ac6c])), the half-maximal effective concentration (EC50) came to 1.2 ± 0.6 µM. `C[C@@H]1NC(=O)[C@H](Cc2ccccc2)NC(=O)[C@H](CCC(N)=O)NC(=O)[C@H](Cc2c[nH]c3ccccc23)NC(=O)[C@H](Cc2ccccc2)NC(=O)C2(CCCCC2)NC(=O)[C@H]2CCCN2C(=O)[C@H](Cc2ccc(O)cc2)NC(=O)[C@H](CCC(=O)O)NC(=O)[C@H](Cc2c[nH]c3ccccc23)NC1=O` [compound 27, cyclo(-Phe-Trp-Gln-Phe-Ala-Trp-Glu-Tyr-^DPro-Chx-)] (cyclo(FWQFAWEY[dP][Ac6c])): the EC50 was found to be 0.58 µM. As for `CC(C)C[C@@H]1NC(=O)[C@H](CCC(N)=O)NC(=O)[C@H](Cc2ccccc2)NC(=O)C2(CCCCC2)NC(=O)[C@H]2CCCN2C(=O)[C@H](Cc2ccc(O)cc2)NC(=O)[C@H](CCCC(=O)O)NC(=O)[C@H](Cc2c[nH]c3ccccc23)NC(=O)[C@H](C)NC(=O)[C@H](Cc2ccc(O)cc2)NC1=O` [compound 49, cyclo(-Phe-Gln-Leu-Tyr-Ala-Trp-Hgl-Tyr-^DPro-Chx-)] (cyclo(FQLYAW[Aad]Y[dP][Ac6c])), the EC50 was determined as 3.1 µM. The figure for `CC(C)C[C@@H]1NC(=O)[C@H](CCC(=O)O)NC(=O)[C@H](Cc2ccccc2)NC(=O)C2(CCCCC2)NC(=O)[C@H]2CCCN2C(=O)[C@H](Cc2c[nH]c3ccccc23)NC(=O)[C@H](CCC(=O)O)NC(=O)[C@H](Cc2c[nH]c3ccccc23)NC(=O)[C@H](C)NC(=O)[C@H](Cc2ccc(O)cc2)NC1=O` [compound 16, cyclo(-Phe-Glu-Leu-Tyr-Ala-Trp-Glu-Trp-^DPro-Chx-)] (cyclo(FELYAWEW[dP][Ac6c])) is 0.41 µM. The result for `COc1ccc(C[C@@H]2NC(=O)[C@H](CC(C)C)NC(=O)[C@H](CCC(=O)O)NC(=O)[C@H](Cc3ccccc3)NC(=O)C3(CCCCC3)NC(=O)[C@H]3CCCN3C(=O)[C@H](Cc3ccc(OC)cc3)NC(=O)[C@H](CCC(=O)O)NC(=O)[C@H](Cc3c[nH]c4ccccc34)NC(=O)[C@H](C)NC2=O)cc1` [compound 34, cyclo(-Phe-Glu-Leu-Tyr(Me)-Ala-Trp-Glu-Tyr(Me)-^DPro-Chx-)] (cyclo(FELY(Me)AWEY(Me)[dP][Ac6c])) reads 0.73 µM; that for `CCC1(CC)NC(=O)[C@H]2CCCN2C(=O)[C@H](Cc2ccccc2)NC(=O)[C@H](CCC(=O)O)NC(=O)[C@H](Cc2c[nH]c3ccccc23)NC(=O)[C@H](C)NC(=O)[C@H](CC(C)C)NC(=O)[C@H](CC(C)C)NC(=O)[C@H](CCC(=O)O)NC(=O)[C@H](Cc2ccccc2)NC1=O` [compound 47, cyclo(-Phe-Glu-Leu-Leu-Ala-Trp-Glu-Phe-^DPro-Deg-)] (cyclo(FELLAWEF[dP][Deg])), 2 µM; that for `C[C@@H]1NC(=O)[C@H](Cc2ccc(O)cc2)NC(=O)[C@H](CCC(N)=O)NC(=O)[C@H](Cc2ccc(N)cc2)NC(=O)[C@H](Cc2ccccc2)NC(=O)C2(CCCCC2)NC(=O)[C@H]2CCCN2C(=O)[C@H](Cc2ccc(O)cc2)NC(=O)[C@H](CCC(=O)O)NC(=O)[C@H](Cc2c[nH]c3ccccc23)NC1=O` [compound 3, cyclo(-Phe-Phe(4NH2)-Gln-Tyr-Ala-Trp-Glu-Tyr-^DPro-Chx-)] (cyclo(F[Phe(4-NH2)]QYAWEY[dP][Ac6c])), 0.18 ± 0.18 µM.

The record behind these values is patent publication US10730911B2, “Backbone-cyclized peptidomimetics with GLP-1R modulating activity” (POLYPHOR AG, priority 2015, dated 2020).
